These results are taken from US20100184683A1, “ANTIBACTERIAL AND ANTIFUNGAL PEPTIDES” (C3 JIAN, INC., priority 2009, published 2010).

Usually MIC stands for the lowest concentration that inhibits growth of the organism. A low value points to a more susceptible organism.

One assay relates to S. pneumoniae. Format: cell-based, Streptococcus pneumoniae. As to the method: In certain embodiments the MIC assays are performed as described herein in the Examples. For each organism, the media and growth conditions utilized is detailed in Table 8.
In certain embodiments the MIC assays are performed as follows: For each organism, the media and growth conditions utilized is detailed in Table 8.

A further assay has as its system Candida albicans. Description: Binding of targeting peptides to Candida albicans. Particulars: tested at 3.13, 6.25, 12.5 and 25.0 μM in 1× PBS or HEPES/NaCl/MgCl2/0.1% CTAB. As to the method: The peptides in Table 6 were tested for binding efficiency at 3.13, 6.25, 12.5 and 25.0 μM concentrations in 1× phosphate-buffered saline or 20 mM HEPES (4-(2-hydroxyethyl)-1-piperazineethanesulfonic acid), 150 mM sodium chloride, 1 mM magnesium chloride and 0.1% CTAB.

[1] abbreviates: S. pneumoniae, TSB supplemented with 5% yeast extract, 37° C., 10% CO2, inoculum 10^6 CFU/ml, 18-24 h or 48 h.

Values after ≈ are worked out from the molar mass of the structure shown. Read-outs that look alike come from different tables or passages of the source. Peptide text beside a SMILES is read from it.

With `CC[C@H](C)[C@H](NC(=O)[C@@H](NC(=O)[C@@H](NC(=O)[C@@H]1CCCN1C(=O)[C@@H](NC(=O)[C@H](CCC(=O)O)NC(=O)[C@H](CC(=O)O)NC(=O)[C@H](CC(=O)O)NC(=O)[C@H](CC(=O)O)NC(=O)[C@H](CCC(N)=O)NC(=O)[C@H](Cc1ccccc1)NC(=O)[C@H](CC(=O)O)NC(=O)[C@H](CCC(=O)O)NC(=O)[C@@H](NC(=O)[C@H](CCC(=O)O)NC(=O)[C@H](CCC(=O)O)NC(=O)CNC(=O)[C@@H](NC(=O)[C@H](Cc1ccccc1)NC(=O)[C@@H]1CCCN1C(=O)[C@H](CCCCN)NC(=O)[C@H](CCC(N)=O)NC(=O)[C@@H](N)Cc1ccccc1)[C@@H](C)O)C(C)C)[C@@H](C)CC)[C@@H](C)O)[C@@H](C)CC)C(=O)O` [PF-437] (H-FQKPFTGEEVEDFQDDDEIPTII-OH; N-terminus and C-terminus assumed), in the assay with S. pneumoniae, the MIC was 50 µM (≈ 136 µg/mL).

Turning to VVRRFQGM [PF-141], the “Target(s): form of Candida albicans bound” value in the assay with Candida albicans is “hyphae”.

Regarding “LVRLA (NILFGIIGFVVAMTAAVIVTAISIAK; Antimicrobial peptide and/or targeting peptide) [PF-636]”, the “Target(s): form of Candida albicans bound” value in the assay on Candida albicans was “hyphae”.

For the compound “EILNNNQVIKELTMKYKTQFESNLGGWTARARR [PF-580]”, the “Target(s): form of Candida albicans bound” value in the assay with Candida albicans was “hyphae”.

Consider “DLRKAK (VVRRFQGM; Antimicrobial peptide and/or targeting peptide) [PF-024]”, for which, in the assay on Candida albicans, the “Target(s): form of Candida albicans bound” value is on record as “hyphae”.

`CC[C@H](C)[C@H](NC(=O)[C@H](CC(C)C)NC(=O)[C@@H]1CCCN1C(=O)[C@@H]1CCCN1C(=O)[C@H](CCCCN)NC(=O)[C@@H](NC(=O)[C@H](Cc1ccc(O)cc1)NC(=O)[C@H](CC(C)C)NC(=O)[C@H](CO)NC(=O)[C@H](CCC(N)=O)NC(=O)[C@H](CCSC)NC(=O)[C@@H](N)C(C)C)C(C)C)C(=O)N[C@@H](CC(C)C)C(=O)N[C@H](C(=O)N[C@H](C(=O)N[C@@H](CCCCN)C(=O)N[C@@H](CC(C)C)C(=O)N[C@@H](C)C(=O)N[C@@H](CCC(N)=O)C(=O)N[C@@H](CCC(N)=O)C(=O)N[C@@H](CC(N)=O)C(=O)O)[C@@H](C)O)C(C)C` [PF-511] (H-VMQSLYVKPPLILVTKLAQQN-OH; N-terminus and C-terminus assumed) had an MIC in the assay on S. pneumoniae (setting [1]) of 50 µM (≈ 119 µg/mL).

Turning to “LGLTAGVAYAAQPTNQPTNQPTNQPTNQPTNQPTNQPRW [PF-520]”, in the assay with S. pneumoniae (setting [1]), the MIC was determined as 50 µM.

Take “SKFELVNYASGCSCGADCKCASETECKCASKK [PF-761]”: the “Target(s): form of Candida albicans bound” value in the assay on Candida albicans is reported as “hyphae”.

As for AIEGVIKKGACFKLLRHEMF [PF-167], in the assay with Candida albicans, the “Target(s): form of Candida albicans bound” value is “yeast cells”.

EVYSSPTNNVAITVQNN [PF-178]: the “Target(s): form of Candida albicans bound” value in the assay with Candida albicans was “hyphae”.

With HARAAVGVAELPRGAAVEVELIAAVRP [1T-65], in the assay with Candida albicans, the “Target(s): form of Candida albicans bound” value is listed as “hyphae”.

Regarding RFFNFEIKKSTKVDYVFAHVDLSDV [PF-051], the “Target(s): form of Candida albicans bound” value in the assay on Candida albicans is “hyphae”.

On to KLRSASKKSLQEKSCGIMPEKPAG [PF-206], for which, in the assay with Candida albicans, the “Target(s): form of Candida albicans bound” value was “hyphae”.

In the case of MIHLTKQNTMEALHFIKQFYDMFFILNFNV [PF-040], the “Target(s): form of Candida albicans bound” value in the assay on Candida albicans is listed as “hyphae”.

As to GVGIGFIMMGVVGYAVKLVHIPIRYLIV [PF-770], the “Target(s): form of Candida albicans bound” value in the assay on Candida albicans was “hyphae”.

In the case of VYRHLRFIDGKLVEIRLERK [1T-36], the “Target(s): form of Candida albicans bound” value in the assay with Candida albicans is given as “hyphae”.

For the compound RLTSNQFLTRITPFVFAQH [PF-176], in the assay on Candida albicans, the “Target(s): form of Candida albicans bound” value was “yeast cells”.

In the case of “HSSHL (HARAAVGVAELPRGAAVEVELIAAVRP; Antimicrobial peptide and/or targeting peptide) [PF-060]”, the “Target(s): form of Candida albicans bound” value in the assay with Candida albicans is given as “hyphae”.

As for NRQAQGERAHGEQQG [1T-70], the “Target(s): form of Candida albicans bound” value in the assay on Candida albicans is “yeast cells”.

Consider GGTKEIVYQRG [1T-68], for which the “Target(s): form of Candida albicans bound” value with Candida albicans was “yeast cells”.

As for NILFGIIGFVVAMTAAVIVTAISIAK [PF-543], the “Target(s): form of Candida albicans bound” value in the assay on Candida albicans is on record as “hyphae”.

For RLARGRPTNLCGRRG [PF-170], in the assay on Candida albicans, the “Target(s): form of Candida albicans bound” value is “yeast cells”.

Regarding MPKARPVNHNKKKSKITIKSNFTLFYMFNP [PF-634], the “Target(s): form of Candida albicans bound” value with Candida albicans is listed as “hyphae”.
